Tests used:
Rag2-/- host mice = assay: T cell transfer enteritis (IBD) model: naive CD4+ T cells transferred into Rag2-/- mice, GSSSG administered intraperitoneally; format: in vivo
Source text: CD4^+ T cells were magnetically sorted from splenocytes of young mice (from 8 to 12 weeks old). Then, naive CD4^+ T cells (CD3^+ CD4^+ CD25^- CD44^lo CD62L^hi or CD3^+ CD4^+ Foxp3-RFP^- CD44^lo CD62L^hi) were sorted using FACS AriaII (BD Bioscience) based on fluorescently labeled monoclonal antibodies or reporter fluorescent proteins. In experiments to confirm homeostatic maintenance proliferation, naive CD4^+ T cells were labeled with carboxyfluorescein succinimidyl ester (CFSE) (Thermo Fisher Scientific), and were injected into the tail veins of CD45.1 host mice irradiated with a sublethal dose (5.5 Gy), at 1 × 10^6 cells per mouse 1 day before transfer. In experiments to induce enteritis, wild-type or Cars2^+/- naive CD4^+ T cells were injected into the tail veins of Rag2^-/- mice at 3 × 10^5 cells per mouse. In experiments to evaluate the function of regulatory T cells, Cars2^+/+ naive CD4^+ T cells were co-transferred with regulatory T cells derived from Cars2^+/- Foxp3-RFP reporter mice (1 × 10^5 cells/mouse). In GSSSG administration experiments, GSSSG (400 nmol/mouse) was intraperitoneally administered to the Rag2^-/- host mice every day from the same day as the day when the naive CD4^+ T cells were transferred.
At the stage where from 3 to 4 weeks had elapsed after the transfer of the naive T cells, the large intestines of the Rag2^-/- host mice were collected and fixed with 10% formalin. After the fixed samples were embedded in paraffin, 5-µm-thick sections were cut out and subjected to hematoxylin-eosin staining (H & E) and immunostaining with a CD4 monoclonal antibody (mAb) (EPR19514). The histological inflammation score was classified into three groups with reference to a previous report (Biswas et al., Nat Commun 9, 1779 (2018)).
Therefore, using the same IBD model, wild-type and Cars2+/- naive CD4+ T cells were adoptively transferred to Rag2-/- mice, and the properties of the donor cells and the IBD pathological conditions of the host mice were observed over time. […] Since there was no significant difference in proportion of dead cells between the two groups (FIGS. 4F, 5C, and 5F), the reason for the increase in number of accumulated cytokine-producing Cars2+/- T cells is considered to be enhanced homeostatic maintenance proliferation of the donor cells.
To confirm whether CARS2 suppresses the proliferation of enteritis pathogenic T cells via active sulfur, GSSSG, which is a donor of an active sulfur molecule, was administered to Rag2-/- host mice, and as a result, the body weight loss of the individuals transplanted with Cars2+/- CD4+ T cells was suppressed, and the reduction in histological enteritis images was observed (FIGS. 8A to 8C).

human CD4+ T cells = assay: Cell cycle analysis of human naive CD4+ T cells stimulated with CD3/CD28 in the presence or absence of GSSSG; format: cell-based; settings: naive CD4+ T cells from peripheral bloods of healthy individuals; CD3/CD28 stimulation; GSSSG 1 µM; 48 hours; FIG. 10E
Experimental: Peripheral mononuclear blood cells were isolated using Vacutainer (BD Bioscience), and naive CD4^+ T cells (CD3^+ CD4^+ CD25^- CD45RO^- CD45RA^+) were purified from the isolated mononuclear cells using FACS AriaII (BD Bioscience). The purified naive CD4^+ T cells were seeded in a 96-well plate at 5 × 10^4 cells per well, and stimulated with Dynabeads™ Human T-Activator CD3/CD28 (Thermo Fischer Scientific) in an RPMI medium (10% FCS) in the presence or absence of GSSSG (1 µM) for 48 hours.
Finally, the involvement of active sulfur in the regulation of the proliferation of human CD4+ T cells was examined through in vitro cell culture. Specifically, naive CD4+ T cells purified from peripheral bloods of healthy individuals were stimulated with CD3/CD28 in the presence and absence of GSSSG to induce the proliferative response, and the cell cycle was analyzed 48 hours after the stimulation. […] Thus, it was shown that CARS2-dependent active sulfur metabolism also suppresses the cell cycle entry also in human CD4+ T cells and limits the proliferation of the same cells.

HDM-treated mice = assay: HDM-induced mouse asthma model (type 2 airway inflammation), intraperitoneal GSSSG; format: in vivo
Experimental: Asthma model mice were created according to a previous report (Ishii et al., Scandinavian journal of immunology. 2018; 87 (3)). Specifically, as shown in the FIG. 5A, mice were intranasally administered with HDM extract (at the indicated doses in PBS) under isoflurane anesthesia to induce asthma.
Twenty four (24) hours after the last dose of HDM, the mice were anesthetized and sacrificed by exsanguination. The alveoli were washed three times with 500 µL of 10 mM PBS, and the bronchial alveolar lavage fluid (BALF) was collected. For 5 minutes, […], then the supernatant was stored for biochemical analysis, and the cellular pellet was resuspended in 500 µL of 10 mM PBS. The total number of cells was counted using a Scepter handheld automated cell counter (Millipore), followed by cytospin specimen preparation and staining with Diff-Quick (Sysmex) or Eosinostain-Torii (Torii Pharmaceutical).
Isolation of cells from mouse lung tissue and FCM were performed according to previous reports (Gomez et al., American journal of respiratory cell and molecular biology. 2015; 52 (3): 349-64., and Yamada et al., American journal of respiratory and critical care medicine. 2011; 183 (10): 1391-401.). For histological examination of lung inflammation, lung sections were stained with hematoxylin and eosin (HE). Lung inflammation was semi-quantified and evaluated according to a previous report.
It was investigated whether intraperitoneal administration of GSSSG in vivo suppresses an HDM-induced type 2 airway inflammation. […] Thus, GSSSG has therapeutic potential in CD4 T cell-mediated type 2 inflammatory diseases, including asthma, by organizing TCR signaling.

`N[C@@H](CCC(=O)N[C@@H](CSSSC[C@H](NC(=O)CC[C@H](N)C(=O)O)C(=O)NCC(=O)O)C(=O)NCC(=O)O)C(=O)O` [GSSSG, glutathione trisulfide] was tested, and the therapeutic effect (Rag2-/- host mice; Rag2-/- host mice transfused with wild-type CD4+ T cells, GSSSG 400 nmol/mouse intraperitoneally every day, FIGS. 9A to 9C) was “no significant therapeutic effect”, the body weight loss (Rag2-/- host mice; Rag2-/- host mice transplanted with Cars2+/- CD4+ T cells, GSSSG 400 nmol/mouse intraperitoneally every day, FIG. 8A) was “suppressed” and the histological enteritis images (Rag2-/- host mice; Rag2-/- host mice transplanted with Cars2+/- CD4+ T cells, GSSSG 400 nmol/mouse intraperitoneally every day, large intestine, H & E and CD4 immunostaining, FIGS. 8B, 8C) was “reduction”. The “enteritis induced by Cars2+/- CD4+ T cells” value (Rag2-/- host mice; figure legend of FIG. 8, administration of GSSSG to host mice) was “improved”, the “cell cycle entry of the naive CD4+ T cells” value (human CD4+ T cells) was “significantly suppressed” and the “accumulation of inflammatory cells, particularly eosinophils, in the airways” value (HDM-treated mice; both Cars2+/- mice and WT mice, HDM-treated, 1 mM GSSSG intraperitoneal, BALF, FIG. 14E) was “significantly suppressed”. For the same compound, the lung inflammation (HDM-treated mice; both HDM-treated Cars2+/- mice and HDM-treated WT mice, GSSSG treatment, HE-stained lung tissue, FIG. 14F) was “significantly reduced” and the goblet cell hyperplasia (HDM-treated mice; both HDM-treated Cars2+/- mice and HDM-treated WT mice, GSSSG treatment, PAS-stained lung tissue, FIG. 14G) was “significantly reduced”.
